Assays:
[1] = system: antibodies in sera from SARS patients (sera 1a, 1b, 2, 6, 37, 62, London, SARS-yellow, SARS-green); format: binding, human; parameters: Binding of serum 6 to linear peptides of protein X1 of SARS-CoV Urbani / Binding of serum 37 to linear peptides of protein X1 of SARS-CoV Urbani / Binding of serum 6 to looped/cyclic peptide (PEPSCAN-ELISA) / Binding of serum 37 to looped/cyclic peptide (PEPSCAN-ELISA) / Binding of serum 37 to looped/cyclic peptides of protein X1 of SARS-CoV Urbani / Binding of serum 6 to linear peptides of protein X2 / Binding of serum 37 to linear peptides of protein X2 / Binding of serum 37 to looped/cyclic peptides of protein X2 of SARS-CoV Urbani / Binding of serum 6 to linear peptides of protein M of SARS-CoV Urbani / Binding of serum 37 to linear peptides of protein M of SARS-CoV Urbani / Binding of serum 6 to looped/cyclic peptides of protein M of SARS-CoV Urbani / Binding of serum 37 to looped/cyclic peptides of protein M of SARS-CoV Urbani / Binding of serum 6 to linear peptides of protein X3 of SARS-CoV Urbani / Binding of serum 37 to linear peptides of protein X3 of SARS-CoV Urbani / Binding of serum 37 to looped/cyclic peptides of protein X3 of SARS-CoV Urbani / Binding of serum 6 to linear peptides of protein X4 of SARS-CoV Urbani / Binding of serum 37 to linear peptides of protein X4 of SARS-CoV Urbani / Binding of serum 37 to looped/cyclic peptides of protein X4 of SARS-CoV Urbani / Binding of serum 6 to linear peptides of protein X5 of SARS-CoV Urbani / Binding of serum 37 to linear peptides of protein X5 of SARS-CoV Urbani / Binding of serum 37 to looped/cyclic peptides of protein X5 of SARS-CoV Urbani / Binding of serum 6 to linear peptides of protein N of SARS-CoV Urbani / Binding of serum 37 to linear peptides of protein N of SARS-CoV Urbani / Binding of serum 6 to linear peptide (PEPSCAN-ELISA) / Binding of serum 1a to looped/cyclic peptides of protein N of SARS-CoV Urbani / Binding of serum 1b to looped/cyclic peptides of protein N of SARS-CoV Urbani / Binding of serum 2 to looped/cyclic peptides of protein N of SARS-CoV Urbani / Binding of serum 6 to looped/cyclic peptides of protein N of SARS-CoV Urbani / Binding of serum 37 to looped/cyclic peptides of protein N of SARS-CoV Urbani / Binding of serum 62 to looped/cyclic peptides of protein N of SARS-CoV Urbani / Binding of serum London to looped/cyclic peptides of protein N of SARS-CoV Urbani / Binding of serum SARS-green to looped/cyclic peptides of protein N of SARS-CoV Urbani: unit not given here
[2] = system: control sera (pooled serum of ten healthy LUMC hospital workers; commercial negative donor pooled serum from the Dutch bloodbank); format: binding, human; parameters: Binding of Control serum LUMC to linear peptides / Binding of Control serum Blood-bank to linear peptides / Binding of Control serum LUMC to looped peptides / Binding of Control Serum Blood-Bank to Looped peptides / Binding of Control serum LUMC to linear peptides of the protein M of SARS-CoV Urbani / Binding of Control serum Blood-bank to linear peptides of the protein M of SARS-CoV Urbani / Binding of Control serum LUMC to looped peptides of the protein M of SARS-CoV Urbani / Binding of Control Serum Blood-Bank to Looped peptides of the protein M of SARS-CoV Urbani: unit not given here
[3] = system: rabbit serum obtained by immunizing a rabbit with the SARS-CoV strain Frankfurt 1; format: binding; parameters: Binding of a rabbit serum to linear peptides / Binding of a rabbit serum to looped peptides / Rabbit serum linear peptides / Rabbit serum looped peptides / Binding of a rabbit serum to linear peptides of protein N of SARS-CoV Urbani (Rabbit serum linear peptides) / Binding of a rabbit serum to looped/cyclic peptides of protein N of SARS-CoV Urbani (Rabbit serum looped peptides): unit not given here

In the case of SLPFGWLVIGVAFLA, the “Binding of serum 1a to linear peptides of protein X1 of SARS-CoV Urbani” value [1] is reported as 0.7, the “Binding of serum 1a to looped/cyclic peptide (PEPSCAN-ELISA)” value [1] is reported as 0.3 and the “Binding of serum 1b to linear peptides of protein X1 of SARS-CoV Urbani” value [1] is reported as 0.6. For the same sequence, the “Binding of serum 1b to looped/cyclic peptide (PEPSCAN-ELISA)” value [1] was 0.2, the “Binding of serum 2 to linear peptides of protein X1 of SARS-CoV Urbani” value [1] was 0.5 and the “Binding of serum 2 to looped/cyclic peptide (PEPSCAN-ELISA)” value [1] was 0.2. The “Binding of serum 6 to linear peptides of protein X1 of SARS-CoV Urbani” value [1] was 0.4, the “Binding of serum 6 to looped/cyclic peptide (PEPSCAN-ELISA)” value [1] was 0.0 and the “Binding of serum 37 to linear peptides of protein X1 of SARS-CoV Urbani” value [1] was 0.6. The “Binding of serum 37 to looped/cyclic peptide (PEPSCAN-ELISA)” value [1] was 0.3, the “Binding of serum 62 to linear peptides of protein X1 of SARS-CoV Urbani” value [1] was 0.5 and the “Binding of serum 62 to looped/cyclic peptide (PEPSCAN-ELISA)” value [1] was 0.3. For the same sequence, the “Binding of serum London to linear peptides of protein X1 of SARS-CoV Urbani” value [1] was 0.2, the “Binding of serum London to looped/cyclic peptide (PEPSCAN-ELISA)” value [1] was 0.2 and the “Binding of serum SARS-green to linear peptides of protein X1 of SARS-CoV Urbani” value [1] was 0.2. For the same sequence, the “Binding of serum SARS-green to looped/cyclic peptide (PEPSCAN-ELISA)” value [1] was 0.3, the “Binding of serum SARS-yellow to linear peptides of protein X1 of SARS-CoV Urbani” value [1] was 0.4 and the “Binding of serum SARS-yellow to looped/cyclic peptide (PEPSCAN-ELISA)” value [1] was 0.2. The “Binding of Control Serum Blood-Bank to Looped peptides” value [2] was 0.4, the “Binding of Control serum Blood-bank to linear peptides” value [2] was 0.6 and the “Binding of Control serum LUMC to linear peptides” value [2] was 0.6. For the same sequence, the “Binding of Control serum LUMC to looped peptides” value [2] was 0.3, the “Binding of a rabbit serum to linear peptides” value [3] was 0.4 and the “Binding of a rabbit serum to looped peptides” value [3] was 0.1.

SLYMAISPKFTTSLS was tested, and the “Binding of serum 1a to linear peptides of protein X2” value [1] was 0.7, the “Binding of serum 1a to looped/cyclic peptides of protein X2 of SARS-CoV Urbani” value [1] was 0.6 and the “Binding of serum 1b to linear peptides of protein X2” value [1] was 0.5. The “Binding of serum 1b to looped/cyclic peptides of protein X2 of SARS-CoV Urbani” value [1] was 0.6, the “Binding of serum 2 to linear peptides of protein X2” value [1] was 0.5 and the “Binding of serum 2 to looped/cyclic peptides of protein X2 of SARS-CoV Urbani” value [1] was 0.3. For the same sequence, the “Binding of serum 6 to linear peptides of protein X2” value [1] was 0.4, the “Binding of serum 6 to looped/cyclic peptides of protein X2 of SARS-CoV Urbani” value [1] was 0.4 and the “Binding of serum 37 to linear peptides of protein X2” value [1] was 0.6. The “Binding of serum 37 to looped/cyclic peptides of protein X2 of SARS-CoV Urbani” value [1] was 0.4, the “Binding of serum 62 to linear peptides of protein X2” value [1] was 0.6 and the “Binding of serum 62 to looped/cyclic peptides of protein X2 of SARS-CoV Urbani” value [1] was 0.5. For the same sequence, the “Binding of serum London to linear peptides of protein X2” value [1] was 0.6, the “Binding of serum London to looped/cyclic peptides of protein X2 of SARS-CoV Urbani” value [1] was 0.3 and the “Binding of serum SARS-green to linear peptides of protein X2” value [1] was 0.6. The “Binding of serum SARS-green to looped/cyclic peptides of protein X2 of SARS-CoV Urbani” value [1] was 0.5, the “Binding of serum SARS-yellow to linear peptides of protein X2” value [1] was 0.6 and the “Binding of serum SARS-yellow to looped/cyclic peptides of protein X2 of SARS-CoV Urbani” value [1] was 0.6. The “Binding of Control Serum Blood-Bank to Looped peptides” value [2] was 0.6, the “Binding of Control serum Blood-bank to linear peptides” value [2] was 0.7 and the “Binding of Control serum LUMC to linear peptides” value [2] was 0.6. For the same sequence, the “Binding of Control serum LUMC to looped peptides” value [2] was 0.9, the “Binding of a rabbit serum to linear peptides” value [3] was 0.2 and the “Binding of a rabbit serum to looped peptides” value [3] was 0.3.

From US20070128217A1 (priority 2003, published 2007)
